Source: patent EP0011821A2, “Antiseborrhoeic hair treatment composition” (Henkel Kommanditgesellschaft auf Aktien, priority 1978, dated 1980)

System: Meerschweinchen
Experiment: Test for anti-dandruff effect on oleic-acid-treated back skin of shorn guinea pigs (skin fold thickness and visual scaling score)
Type: in vivo
Settings: 5 % test substance with 5 % Ölsäure in 70 %igem Ethanol, topical on the back, 60 min exposure on 4 consecutive days, relative to skin treated with 5 % Ölsäure in 70 % Ethanol only, significant (+, 95 %)
Excerpt: Die Prüfung auf Antischuppenwirkung wurde in folgender Weise durchgeführt:
Die Prüfsubstanz wurde in 5 % iger Konzentration zusammen mit 5 % Ölsäure in 70 %igem Ethanol gelöst und in alternierender Reihenfolge und in rotierendem Schema auf den Rücken junger, geschorener weiblicher Meerschweinchen im Gewicht von 600 ± 50 g aufgetragen. Die Einwirkungszeit der Substanz wurde dabei auf 60 Minuten begrenzt, da diese Zeit ausreichte, um eine Wirkung zu erzielen. Anschließend wurden die Tiere mit warmem Wasser 30 Sekunden lang abgeduscht. Die Reihenfolge der Tiere bei der Applikation wechselte dabei täglich, um Differenzen in der Einwirkungszeit zwischen dem ersten und letzten Tier der Gruppe auf ein Minimum zu begrenzen. Diese Behandlung geschah an vier aufeinanderfolgenden Tagen, darauf folgte eine Ruhezeit (Entwicklungszeit von drei Tagen). Am siebenten Tag wurde ausgewertet, und zwar a) kutimetrisch auf Hautfaltendicke instrumentell mit dem Cutimeter nach Götze und b) visuell auf Schuppenbildung bzw. Hemmung nach einer 4-Punkte-Skala folgender Definition: • 0 = keine Schuppen • 1 = leichte Schuppen • 2 = kräftige Schuppen • 3= starke Schuppen mit Rötung • 4 = Krusten mit Aufrichten der Haare.
Die Versuchsgruppe bestand aus 6 Tieren. Das Kollektiv wurde mathematisch auf Homogenität geprüft und nach Eliminierung signifikant abweichender Tiere wurden Mittelwert und Streuung berechnet. […]

COc1ccc(Cc2nccc3cc(OC)c(OC)cc23)cc1OC [Papaverin, 1-(3',4'-dimethoxybenzyl)-6,7-dimethoxy-isochinolin]
Hautdickenmessung Hemmung % (evaluated on day 7 with the Cutimeter nach Götze): 17% | Hautschuppenmessung Hemmung % (evaluated visually on day 7 on a 0-4 scale): 100%
